Laboratory results: patent publication US20150299290A1, “IMMUNOGENIC VACCINE” (University of Georgia Research Foundation, Inc., priority 2010, published 2015)
Where a SMILES comes first, the peptide text is derived from it. The star is where a group is joined. Propyl(2R-PamO,3-PamO) = CCCCCCCCCCCCCCCC(=O)OC[C@H](C*)OC(=O)CCCCCCCCCCCCCCC; Palmitoyl = CCCCCCCCCCCCCCCC(=O)*

Experiments:
[1] = tested on: GSTPVS(β-O-GlcNAc)SANM (BSA-MI-66 conjugate); parameters: species or system BALB/c mice; settings: mouse, in vivo
RAW γNO(−) cells = assay: TNF-α and IFN-β production by mouse macrophages (Example 3); format: cell-based; settings: best-fit values (Prism)
Protocol: After 5 hours, the supernatants were harvested and examined for mouse TNF-α and IFN-β using commercial or in-house developed capture ELISA assays, respectively.

RAW 264.7 γNO(−) cells = assay: TNF-α and IFN-β assays in macrophages (Example 6); format: cell-based, mouse; settings: 5.5 h
Protocol: To examine cytokine production, mouse macrophages (RAW γNO(−) cells) were exposed over a wide range of concentrations to compounds 21-24, E. coli 055:B5 LPS and prototypic E. coli bisphosphoryl lipid A (Zhang, J. Am. Chem. Soc. 2007, 129, 5200-5216). After 5.5 h, the supernatants were harvested and examined for mouse TNF-α and IFN-β using commercial or in-house developed capture ELISAs, respectively (FIG. 6). […] The reduced efficacy of compounds 21 and 23 is probably a beneficial property, because LPS can over-activate the innate immune system leading to symptoms of septic shock.
RAW 264.7 γNO(−) cells were plated on the day of the exposure assay as 2×10^5 cells/well in 96-well plates (Nunc) and incubated with different stimuli for 5.5 h in the presence or absence of polymyxin B. Culture supernatants were collected and stored frozen (−80° C.) until assayed for cytokine production. Concentrations of TNF-α were determined using the TNF-α DuoSet ELISA Development kit from R&D Systems. Concentrations of IFN-β were determined as follows. ELISA MaxiSorp plates were coated with rabbit polyclonal antibody against mouse IFN-β (PBL Biomedical Laboratories). IFN-β in standards and samples was allowed to bind to the immobilized antibody. Rat anti-mouse IFN-β antibody (USBiological) was then added, producing an antibody-antigen-antibody “sandwich”. Next, horseradish peroxidase (HRP) conjugated goat anti-rat IgG (H+L) antibody (Pierce) and a chromogenic substrate for HRP 3,3′,5,5′-tetramethylbenzidine (TMB; Pierce) were added. After the reaction was stopped, the absorbance was measured at 450 nm with wavelength correction set to 540 nm. Concentration-response data were analyzed using nonlinear least-squares curve fitting in Prism (GraphPad Software, Inc.). […] The Hill slope was set at 1 to be able to compare the EC50 values of the different inducers. All cytokine values are presented as the means±SD of triplicate measurements, with each experiment being repeated three times.

Pam3CysSK4G-C-KLFAVWKITYKDT-G-GSTPVS(β-S-GluNAc)SANM [Compound 53]
IgG1 titer (anti-GSTPVS(β-O-GlcNAc)SANM) [1]: 111,800
IgG2a titer (anti-GSTPVS(β-O-GlcNAc)SANM) [1]: 55,600
IgG2b titer (anti-GSTPVS(β-O-GlcNAc)SANM) [1]: 21,300
IgG3 titer (anti-GSTPVS(β-O-GlcNAc)SANM) [1]: 111,700
IgG total titer (anti-GSTPVS(β-O-GlcNAc)SANM) [1]: 151,600
IgM titer (anti-GSTPVS(β-O-GlcNAc)SANM) [1]: 21,900

CCCCCCCCCCCCCCCC(=O)OC[C@H](CSC[C@H](N)C(=O)N[C@@H](CO)C(=O)N[C@@H](CCCCN)C(=O)N[C@@H](CCCCN)C(=O)N[C@@H](CCCCN)C(=O)N[C@@H](CCCCN)C(=O)O)OC(=O)CCCCCCCCCCCCCCC [Pam2CysSK4, S—[(R)-2,3-bis(palmitoyloxy)-propyl]-(R)-cysteinyl-(S)-seryl-(S)-lysine-(S)-lysine-(S)-lysine-(S)-lysyne] (H-C(Propyl(2R-PamO,3-PamO))SKKKK-OH; C-terminus assumed)
Emax for TNF-α production (RAW γNO(−) cells): 631 pg/mL

monophosphoryl lipid A [Compound 24]
IFN-β secretion (RAW 264.7 γNO(−) cells): stimulated the cells to produce TNF-α and INF-β
TNF-α secretion (RAW 264.7 γNO(−) cells): stimulated the cells to produce TNF-α and INF-β

Pam3CysSK4G-C-KLFAVWKITYKDT-G-GSTPVS(β-O-GluNAc)SANM [Compound 52]
IgG1 titer (anti-GSTPVS(β-O-GlcNAc)SANM) [1]: 61,400
IgG2a titer (anti-GSTPVS(β-O-GlcNAc)SANM) [1]: 33,200
IgG2b titer (anti-GSTPVS(β-O-GlcNAc)SANM) [1]: 12,500
IgG3 titer (anti-GSTPVS(β-O-GlcNAc)SANM) [1]: 69,400
IgG total titer (anti-GSTPVS(β-O-GlcNAc)SANM) [1]: 76,500
IgM titer (anti-GSTPVS(β-O-GlcNAc)SANM) [1]: 81,900

CCCCCCCCCCCCCCCC(=O)N[C@@H](CSC[C@@H](COC(=O)CCCCCCCCCCCCCCC)OC(=O)CCCCCCCCCCCCCCC)C(=O)N[C@@H](CO)C(=O)N[C@@H](CCCCN)C(=O)N[C@@H](CCCCN)C(=O)N[C@@H](CCCCN)C(=O)N[C@@H](CCCCN)C(=O)O [Pam3CysSK4, N-palmitoyl-S—[(R)-2,3-bis(palmitoyloxy)-propyl]-(R)-cysteinyl-(S)-seryl-(S)-lysine-(S)-lysine-(S)-lysine-(S)-lysyne] (Palmitoyl-C(Propyl(2R-PamO,3-PamO))SKKKK-OH)
Emax for TNF-α production (RAW γNO(−) cells): 932 pg/mL
IFN-β secretion (RAW 264.7 γNO(−) cells): none of the compounds induced the production of INF-β
TNF-α secretion (RAW 264.7 γNO(−) cells): induced secretion of TNF-α with similar efficacies and potencies
